Data taken from paper PMC6330446, “An integrated characterization of contractile, electrophysiological, and structural cardiotoxicity of Sophora tonkinensis Gapnep. in human pluripotent stem cell-derived cardiomyocytes” (Stem Cell Research & Therapy, 2019).
“Also recorded” adds a separate entry of the source. Where two headings read alike, the source gives them in different places.

Key:
hiPSC-CMs [1] = test: Cardio-NLCS impedance and extracellular field potential (EFP) recording; assay type: cell-based, human; details: for Amplitude (EFP): lowest concentration that demonstrated a significant change compare with the control group / Amplitude (IMP): lowest concentration that demonstrated a significant change compare with the control group / Base impedance: lowest concentration that demonstrated a significant change compare with the control group / Beat rate: lowest concentration that demonstrated a significant change compare with the control group / FPD: lowest concentration that demonstrated a significant change compare with the control group: 2, 10, 50 μM tested, recorded over 24 h; for Base impedance vs the control group (in words) / Contractile amplitude (amplitude of IMP) vs the control group (in words) / FPD value vs the control group (in words) / Potential amplitude (amplitude of EFP) vs the control group (in words) / Beat rate vs the control group (in words): 2, 10, 50 μM, 24 h recording
Method: (§1) After plating for about 3 days, CMs matured and began to beat. At this time, different compounds were added, and experiments were performed 24 h after treatment. The experiments were grouped as follows: control group (normal medium); matrine, oxymatrine, sophocarpine, and cytisine treatment (2, 10, 50 μM) groups; and aconitine treatment (1 μM) group. The doses of toxicity studies above were determined by the effective therapeutic doses reported and included or exceeded the therapeutic dose.
Cardio-NLCS (Optoprobe Science LTD, Canada) is a turn-key system for efficient impedance and extracellular field potential (EFP) measurements of cell monolayers or tissue preparations. NSP-96 dedicated for Cardio-NLCS should be coated with BD and the wells should not run dry before adding the cell suspension. After seeding, the medium was not exchanged for 12 h. Subsequently, the medium exchange was completed once a day for 2–3 days and every 2 days thereafter. Adding compounds required a complete solution exchange to allow for exact dosing. After the cells were allowed to re-equilibrate for 2–3 h, the 2× concentrated compounds were added by exchanging half of the medium per well. In this experiment, several indexes (base impedance, amplitude, beat rate, and FPD) were recorded at the start of the experiment (control), then every 5 min for 4 h after compound application and every 30 min the same as cell growth period detection, lasting a minimum of 24 h. In this way, both time and concentration-dependent effects could be monitored. Impedance and EFP data analyses were taken every 4 h after compound administrations.

hiPSC-CMs [2] = details: for Cell viability (in words): alkaloids 2, 10, 50 μM, aconitine 1 μM
Method: as §1
CMs were incubated in 10% CCK-8 (Dojindo, Kumamoto, Japan) that was diluted in normal culture medium at 37 °C until a visual color conversion occurred. The absorbance of each well was measured using a microplate reader (Spectrafluor, TECAN, Sunrise, Austria) at 450 nm. Three individual experiments were performed. All samples were operated in duplicate.
A 96-well plate was used to seed hiPSC-CMs at a concentration of 5 × 10^4 cells per well. The cultured cells were treated with different concentrations of compounds and were incubated for another 48 h. CMs were digested with trypsin, and a small amount of cell suspension was added into the same amount of trypan blue solution. Countstar Automated Cell Counter IC1000 (Elite Life Sciences, Shanghai, China) was used to count the number of total and living cells. Data were presented as the mean ± SEM, n ≥ 3.

hiPSC-CMs [3] = test system: hiPSC-CMs
Method: as §1
Cell treatment method was the same as above. After reaching the predetermined time, 120 μl of the supernatant of each well was taken for measuring LDH leakage using a commercially available kit (Beyotime Biotechnology, Shanghai, China) following the manufacturer’s instructions. Data were presented as the mean ± SEM, n ≥ 3.

hiPSC-CMs [4] = test: SOD, GSH and MDA assay; assay type: cell-based, human; details: 2, 10, 50 μM
Method: as §1
Cell treatment was the same as discussed in the “Compound treatment” section. After reaching the predetermined time, the cells were washed with 4 °C physiological saline and later were added into the lysate and appropriately pipetted. After centrifuging at 1.2 × 10^4 rpm for 5 min, the supernatant was obtained to measure the levels of SOD, GSH and MDA using a commercially available kit (Beyotime Biotechnology, Shanghai, China) following the manufacturer's instructions. Data were presented as the mean ± SEM, n ≥ 3.

hiPSC-CMs [5] = assay type: cell-based, human
Method: Cells were incubated in a maintaining medium containing 10 μM DCFH-DA (Beyotime Biotechnology, Shanghai, China) for 30 min at 37 °C in the dark. The measurement of ROS was performed with IncuCyte™ S3 ZOOM cell imaging system (Essen BioScience, Ann Arbor, MI). TissueQuest 6.0 was used for the quantitative analysis of ROS formation. Data were presented as the mean ± SEM, n ≥ 3.

GCaMP hESC-CMs = assay type: cell-based, human
Method: The hESC-CMs in this experiment can express the GCaMP reporter gene by gene editing, and green fluorescence marker can be observed by a fluorescence microscope. The fluorescence intensity is proportional to Ca^2+ concentration. The CMs were seeded into 96-well plates at 5000/well and were administered the same as above. The fluorescence intensities of hESC-CMs were monitored using an IncuCyte™ S3 ZOOM cell imaging system (Essen BioScience, Ann Arbor, MI). Data were presented as the mean ± SEM, n ≥ 3.

[6] = at the lowest effective concentration
[7] = hiPSC-CMs, 2, 10, 50 μM tested, 24 h

SMILES | Amplitude (EFP): lowest concentration that demonstrated a significant change compare with the control group (hiPSC-CMs [1]) | Amplitude (IMP): lowest concentration that demonstrated a significant change compare with the control group (hiPSC-CMs [1]) | Base impedance: lowest concentration that demonstrated a significant change compare with the control group (hiPSC-CMs [1]) | Beat rate: lowest concentration that demonstrated a significant change compare with the control group (hiPSC-CMs [1]) | FPD: lowest concentration that demonstrated a significant change compare with the control group (hiPSC-CMs [1]) | Base impedance vs the control group (in words) (hiPSC-CMs [1]) | Contractile amplitude (amplitude of IMP) vs the control group (in words) (hiPSC-CMs [1]) | FPD value vs the control group (in words) (hiPSC-CMs [1]) | Potential amplitude (amplitude of EFP) vs the control group (in words) (hiPSC-CMs [1]) | Amplitude (EFP): initial time of significant change compare with the control group (hiPSC-CMs [1]; [6]) | Base impedance: initial time of significant change compare with the control group (hiPSC-CMs [1]; [6]) | Beat rate: initial time of significant change compare with the control group (hiPSC-CMs [1]; [6]) | Cell viability: lowest concentration that demonstrated a significant change compare with the control group (hiPSC-CMs [2]; [7]) | Cell viability (in words) (hiPSC-CMs [2]; hiPSC-CMs, 24 h) | LDH leakage: lowest concentration that demonstrated a significant change compare with the control group (hiPSC-CMs [3]; hiPSC-CMs, 2, 10, 50 μM tested) | GSH activity (in words) (hiPSC-CMs [4]) | MDA level (in words) (hiPSC-CMs [4]) | SOD activity (in words) (hiPSC-CMs [4]) | ROS level: lowest concentration that demonstrated a significant change compare with the control group (hiPSC-CMs [5]; hiPSC-CMs, 2, 10, 50 μM tested) | Amplitude (IMP): initial time of significant change compare with the control group (hiPSC-CMs [1]; [6]) | also measured
O=C1C=CC[C@@H]2[C@H]3CCCN4CCC[C@@H](CN12)[C@@H]34 [Sophocarpine, sophocarpine] | 50 µM | 50 µM | 50 µM | 50 µM | 50 µM | no change | upward dose-dependent trend | large differences in the first 12 h and remained stable after 15 h of treatment | no change | 16 h | 8 h | 4 h | 10 µM | decreased dose-dependently | 2 µM | sharply lowered | rose | sharply lowered | 10 µM |  | FPD after high-dose administration (in words) (hiPSC-CMs [1]; 50 μM): immediately increased in a jump; FPD: period of time of significant change compare with the control group (hiPSC-CMs [1]; [6]): 0 to 12 h; [Ca^2+]i: lowest concentration that demonstrated a significant change compare with the control group (GCaMP hESC-CMs; hESC-CMs, 2, 10, 50 μM tested): 50 µM
O=C1CCC[C@@H]2[C@H]3CCC[N+]4([O-])CCC[C@@H](CN12)[C@@H]34 (stereo partly shown) [Oxymatrine, oxymatrine] | 10 µM |  |  | 10 µM | No effect | no change, except 10 μM oxymatrine treatment | upward dose-dependent trend | remained stable in all groups | upward dose-dependent trend; also recorded: large fluctuation | 12 h |  | 4 h | 10 µM | decreased dose-dependently | 2 µM | sharply lowered | rose | sharply lowered |  | 4 h | Beat rate vs the control group (in words) (hiPSC-CMs [1]): slightly lower; also recorded: large fluctuation
O=c1cccc2n1C[C@@H]1CNC[C@H]2C1 [Cytisine, cytisine] | 50 µM | 10 µM | 50 µM | 10 µM | No effect | no change except 50 μM cytisine treatment | upward trend | no significant effect | upward trend | 16 h | 12 h |  |  | decreased dose-dependently |  | sharply lowered | rose | sharply lowered |  | 4 h | Beat rate vs the control group (in words) (hiPSC-CMs [1]; listed as cytisine): slightly lowered; FPD value vs the control group (in words) (hiPSC-CMs [1]; listed as cytisine): remained stable in all groups; Cell viability: lowest concentration that demonstrated a significant change compare with the control group (hiPSC-CMs [2]; human): 50 µM; LDH leakage: lowest concentration that demonstrated a significant change compare with the control group (hiPSC-CMs [3]; human): 2 µM; ROS level: lowest concentration that demonstrated a significant change compare with the control group (hiPSC-CMs [5]; human): 50 µM; [Ca^2+]i: lowest concentration that demonstrated a significant change compare with the control group (GCaMP hESC-CMs; human): 50 µM
O=C1CCC[C@@H]2[C@H]3CCCN4CCC[C@@H](CN12)[C@@H]34 [Matrine, matrine] | 50 µM | 10 µM | 10 µM | 2 µM | 50 µM | slightly lowered | upward trend | rose in the first half of matrine treatment | upward trend | 20 h | 16 h |  |  | decreased dose-dependently | 2 µM | sharply lowered | rose | sharply lowered | 50 µM | 4 h | Beat rate vs the control group (in words) (hiPSC-CMs [1]): slightly lowered; Beat rate in comparison with the low-dose group (in words) (hiPSC-CMs [1]; higher concentrations 10, 50 μM): an increase in beat rate can be detected; Beat rate (in words) (hiPSC-CMs [1]; low, therapeutically relevant concentration 2 μM): a decrease in the beat rate can be detected; ROS fluorescence / ROS production (in words) (hiPSC-CMs [5]; hiPSC-CMs, high dose of alkaloids (50 μM), aconitine 1 μM): induced ROS production in excess; Fluorescence intensity of calcium, [Ca^2+]i (in words) (GCaMP hESC-CMs; GCaMP hESC-CMs, high dose of alkaloids (50 μM), aconitine 1 μM): increased significantly; [Ca^2+]i: lowest concentration that demonstrated a significant change compare with the control group (GCaMP hESC-CMs; hESC-CMs, 2, 10, 50 μM tested): 50 µM
